Source: patent publication US20080280920A1, “Plasminogen Activator Inhibitor-1 Inhibitors” (priority 2005, published 2008)

Key:
[1] = test system: 60 different human cancer cell lines; test: NCI in vitro anticancer screen (whole panel); assay type: cell-based; conditions: for growth and proliferation of human primary cancer cell-lines (in words): NCI screen, 48 h
[2] = test system: K-562; test: NCI anticancer screen, K-562; assay type: cell-based, human; conditions: K-562, Leukemia, 48 h
[3] = test system: MOLT-4; test: NCI anticancer screen, MOLT-4; assay type: cell-based, human; conditions: MOLT-4, Leukemia, 48 h
[4] = test system: EKVX; test: NCI anticancer screen, EKVX; assay type: cell-based, human; conditions: Non-Small Cell Lung, 48 h
[5] = test system: NCI-H226; test: NCI anticancer screen, NCI-H226; assay type: cell-based, human; conditions: NCI-H226, Non-Small Cell Lung, 48 h
[6] = test system: NCI-H23; test: NCI anticancer screen, NCI-H23; assay type: cell-based, human; conditions: NCI-H23, Non-Small Cell Lung, 48 h
[7] = test system: NCI-H322M; test: NCI anticancer screen, NCI-H322M; assay type: cell-based, human; conditions: Non-Small Cell Lung, 48 h
[8] = test system: NCI-H460; test: NCI anticancer screen, NCI-H460; assay type: cell-based, human; conditions: NCI-H460, Non-Small Cell Lung, 48 h
[9] = test system: NCI-H522; test: NCI anticancer screen, NCI-H522; assay type: cell-based, human; conditions: NCI-H522, Non-Small Cell Lung, 48 h
[10] = test system: HCT-116; test: NCI anticancer screen, HCT-116; assay type: cell-based, human; conditions: HCT-116, Colon, 48 h
[11] = test system: KM12; test: NCI anticancer screen, KM12; assay type: cell-based, human; conditions: KM12, Colon, 48 h
[12] = test system: SW-620; test: NCI anticancer screen, SW-620; assay type: cell-based, human; conditions: SW-620, Colon, 48 h
[13] = test system: SF-295; test: NCI anticancer screen, SF-295; assay type: cell-based, human; conditions: SF-295, CNS, 48 h
[14] = test system: SNB-75; test: NCI anticancer screen, SNB-75; assay type: cell-based, human; conditions: SNB-75, CNS, 48 h
[15] = test system: U251; test: NCI anticancer screen, U251; assay type: cell-based, human; conditions: U251, CNS, 48 h
[16] = test system: MALME-3M; test: NCI anticancer screen, MALME-3M; assay type: cell-based, human; conditions: Melanoma, 48 h
[17] = test system: SK-MEL-2; test: NCI anticancer screen, SK-MEL-2; assay type: cell-based, human; conditions: SK-MEL-2, Melanoma, 48 h
[18] = test system: SK-MEL-5; test: NCI anticancer screen, SK-MEL-5; assay type: cell-based, human; conditions: SK-MEL-5, Melanoma, 48 h
[19] = test system: IGR-OV1; test: NCI anticancer screen, IGR-OV1; assay type: cell-based, human; conditions: IGR-OV1, Ovarian, 48 h
[20] = test system: OVCAR-3; test: NCI anticancer screen, OVCAR-3; assay type: cell-based, human; conditions: OVCAR-3, Ovarian, 48 h
[21] = test system: OVCAR-5; test: NCI anticancer screen, OVCAR-5; assay type: cell-based, human; conditions: OVCAR-5, Ovarian, 48 h
[22] = test system: OVCAR-8; test: NCI anticancer screen, OVCAR-8; assay type: cell-based, human; conditions: OVCAR-8, Ovarian, 48 h
[23] = test system: A498; test: NCI anticancer screen, A498; assay type: cell-based, human; conditions: A498, Renal, 48 h
[24] = test system: CAKI-1; test: NCI anticancer screen, CAKI-1; assay type: cell-based, human; conditions: CAKI-1, Renal, 48 h
[25] = test system: SN12C; test: NCI anticancer screen, SN12C; assay type: cell-based, human; conditions: 48 h, Renal
[26] = test system: TK-10; test: NCI anticancer screen, TK-10; assay type: cell-based, human; conditions: TK-10, Renal, 48 h
[27] = test system: UO-31; test: NCI anticancer screen, UO-31; assay type: cell-based, human; conditions: UO-31, Renal, 48 h
[28] = test system: PC-3; test: NCI anticancer screen, PC-3; assay type: cell-based, human; conditions: PC-3, Prostate, 48 h
[29] = test system: DU-145; test: NCI anticancer screen, DU-145; assay type: cell-based, human; conditions: DU-145, Prostate, 48 h
[30] = test system: MCF7; test: NCI anticancer screen, MCF7; assay type: cell-based, human; conditions: MCF7, Breast, 48 h
[31] = test system: NCI/ADR-RES; test: NCI anticancer screen, NCI/ADR-RES; assay type: cell-based, human; conditions: Breast, 48 h
[32] = test system: MDA-MB-231/ATCC; test: NCI anticancer screen, MDA-MB-231/ATCC; assay type: cell-based, human; conditions: Breast, 48 h
[33] = test system: MDA-MB-435; test: NCI anticancer screen, MDA-MB-435; assay type: cell-based, human; conditions: MDA-MB-435, Breast, 48 h
[34] = test system: T-47D; test: NCI anticancer screen, T-47D; assay type: cell-based, human; conditions: Breast, 48 h
[35] = Homo sapiens, read-out: LC50 (the source's name)

CCOC(=O)c1ccc(CNCc2cc(CN3CCN(c4ccccn4)CC3)c(O)c(OC)c2)cc1 [Compound Q012135T]
growth and proliferation of human primary cancer cell-lines (in words) [1]: inhibited growth and proliferation | cytostatic / cytotoxic effects on human cancer cell-lines (in words) ([1]; low micromolar concentrations, leukemia, melanoma, colon and central nervous system cell-lines): cytostatic and cytotoxic effects | GI50 ([2]; Homo sapiens, K562): 3.4 µM | CC50 ([2]; Homo sapiens, K562, read-out: LC50 (the source's name)): 3.4 µM | TGI [2]: 14.1 µM | GI50 ([3]; Homo sapiens): 10.1 µM | CC50 [3, 35]: 10.1 µM | TGI [3]: 31.3 µM | GI50 ([4]; Homo sapiens): 21.3 µM | CC50 [4, 35]: > 100 µM | TGI [4]: 62.1 µM | GI50 ([5]; Homo sapiens): 19.8 µM | LC50 (concentration giving 50% net cell kill) ([5]; Homo sapiens): 91.5 µM | TGI [5]: 42.6 µM | GI50 ([6]; Homo sapiens): 34.2 µM | CC50 [6, 35]: > 100 µM | TGI [6]: >100 µM | GI50 ([7]; Homo sapiens): 33.8 µM | CC50 [7, 35]: > 100 µM | TGI [7]: >100 µM | GI50 ([8]; Homo sapiens): 20.2 µM | CC50 [8, 35]: 70.4 µM | TGI [8]: 37.7 µM | GI50 ([9]; Homo sapiens): 15.5 µM | LC50 (concentration killing 50% of cells) ([9]; Homo sapiens): 81.7 µM | TGI [9]: 35.6 µM | TGI [10]: >100 µM | GI50 ([10]; Homo sapiens): 18.6 µM | LC50 (50% lethal concentration) ([10]; Homo sapiens): > 100 µM | GI50 ([11]; Homo sapiens): 21 µM | CC50 [11, 35]: 73.3 µM | TGI [11]: 39.2 µM | GI50 ([12]; Homo sapiens): 18.5 µM | CC50 [12, 35]: 68 µM | TGI [12]: 35.5 µM | GI50 ([13]; Homo sapiens): 19.6 µM | CC50 [13, 35]: 73.5 µM | TGI [13]: 38.0 µM | GI50 ([14]; Homo sapiens): 17.6 µM | LC50 (concentration killing 50% of cells) ([14]; Homo sapiens): 59.2 µM | TGI [14]: 32.2 µM | GI50 ([15]; Homo sapiens, U-251): 15.8 µM | CC50 ([15]; Homo sapiens, U-251, read-out: LC50 (the source's name)): 65.7 µM | TGI [15]: 32.2 µM | GI50 ([16]; Homo sapiens): 20.1 µM | CC50 [16, 35]: 74.1 µM | TGI [16]: 38.6 µM | GI50 ([17]; Homo sapiens): 17.2 µM | CC50 [17, 35]: 79.5 µM | TGI [17]: 36.9 µM | GI50 ([18]; Homo sapiens): 12.9 µM | CC50 [18, 35]: 51.8 µM | TGI [18]: 25.8 µM | GI50 ([19]; Homo sapiens, IGROV-1): 14.7 µM | CC50 ([19]; Homo sapiens, IGROV-1, read-out: LC50 (the source's name)): > 100 µM | TGI [19]: 43.4 µM | GI50 ([20]; Homo sapiens): 14.1 µM | CC50 [20, 35]: 61.2 µM | TGI [20]: 29.4 µM | GI50 ([21]; Homo sapiens): 23.4 µM | CC50 [21, 35]: 91.7 µM | TGI [21]: 46.3 µM | GI50 ([22]; Homo sapiens): 22.1 µM | CC50 [22, 35]: > 100 µM | TGI [22]: 49.1 µM | TGI [23]: 51.4 µM | GI50 ([23]; Homo sapiens): 25.8 µM | CC50 [23, 35]: > 100 µM | TGI [24]: 44.0 µM | GI50 ([24]; Homo sapiens): 17.2 µM | CC50 [24, 35]: > 100 µM | GI50 ([25]; Homo sapiens): 21.7 µM | CC50 [25, 35]: > 100 µM | TGI [25]: 55.7 µM | GI50 ([26]; Homo sapiens): 20.6 µM | CC50 [26, 35]: > 100 µM | TGI [26]: 46.3 µM | GI50 ([27]; Homo sapiens): 11.5 µM | CC50 [27, 35]: 61.6 µM | TGI [27]: 26.6 µM | GI50 ([28]; Homo sapiens): 17.9 µM | CC50 [28, 35]: > 100 µM | TGI [28]: 45.4 µM | TGI [29]: 36.5 µM | GI50 ([29]; Homo sapiens): 17 µM | CC50 [29, 35]: 78.4 µM | GI50 ([30]; Homo sapiens): 16.3 µM | CC50 [30, 35]: 69.9 µM | TGI [30]: 33.7 µM | TGI [31]: 96.9 µM | GI50 ([31]; Homo sapiens): 27.6 µM | CC50 [31, 35]: > 100 µM | TGI [32]: 38.1 µM | GI50 ([32]; Homo sapiens): 18.1 µM | CC50 [32, 35]: 80.5 µM | GI50 ([33]; Homo sapiens): 16.9 µM | CC50 [33, 35]: 87.1 µM | TGI [33]: 38.4 µM | TGI [34]: 49.2 µM | GI50 ([34]; Homo sapiens, T47D): 14.7 µM | CC50 ([34]; Homo sapiens, T47D, read-out: LC50 (the source's name)): > 100 µM

COc1cc(CNc2ccc(C(=O)OC(C)(C)C)cc2)cc(CN2CCN(c3ccccn3)CC2)c1O [Compound Q012145T]
growth and proliferation of human primary cancer cell-lines (in words) [1]: inhibited growth and proliferation | GI50 ([2]; Homo sapiens, K562): 10.2 µM | GI50 ([3]; Homo sapiens): 13 µM | GI50 ([4]; Homo sapiens): 51.5 µM | GI50 ([5]; Homo sapiens): > 100 µM | GI50 ([6]; Homo sapiens): 51.6 µM | GI50 ([7]; Homo sapiens): > 100 µM | GI50 ([8]; Homo sapiens): 21.9 µM | GI50 ([9]; Homo sapiens): 52.9 µM | GI50 ([10]; Homo sapiens): 15.2 µM | GI50 ([11]; Homo sapiens): 80.1 µM | GI50 ([12]; Homo sapiens): 63.7 µM | GI50 ([13]; Homo sapiens): 69.9 µM | GI50 ([14]; Homo sapiens): > 100 µM | GI50 ([15]; Homo sapiens, U-251): 75.9 µM | GI50 ([16]; Homo sapiens): 34.6 µM | GI50 ([17]; Homo sapiens): > 100 µM | GI50 ([18]; Homo sapiens): 10.7 µM | GI50 ([19]; Homo sapiens, IGROV-1): > 100 µM | GI50 ([20]; Homo sapiens): 37.5 µM | GI50 ([21]; Homo sapiens): > 100 µM | GI50 ([22]; Homo sapiens): > 100 µM | GI50 ([23]; Homo sapiens): 16.2 µM | GI50 ([24]; Homo sapiens): > 100 µM | GI50 ([25]; Homo sapiens): > 100 µM | GI50 ([26]; Homo sapiens): 70.4 µM | GI50 ([27]; Homo sapiens): 67.2 µM | GI50 ([28]; Homo sapiens): 23.5 µM | GI50 ([29]; Homo sapiens): > 100 µM | GI50 ([30]; Homo sapiens): 21 µM | GI50 ([31]; Homo sapiens): 41.1 µM | GI50 ([32]; Homo sapiens): > 100 µM | GI50 ([33]; Homo sapiens): 60.1 µM | GI50 ([34]; Homo sapiens, T47D): 13.1 µM
